Assay results as given in US20180263985A1, “MODULATORS OF TOLL-LIKE RECEPTORS FOR THE TREATMENT OF HIV” (Gilead Sciences, Inc., priority 2015, published 2018).
Values joined by “and” are separate entries in the source; they are usually repeats but may differ in a detail not shown here. Equal entries are not always repeated.

Columns and labels:
Assay type in all cases: cell-based, human
B Cells = assay: Immune cell activation in PBMC cultures, flow cytometry: B cells; settings: for B Cells CD69 Fold / B Cells CD80 Fold / B Cells CD69 % / B Cells CD80 %: 2 days, N = 4
Experimental: (§1) TLR8 is expressed on multiple immune cell subsets. To determine how treatment with a TLR8 modulating compound affects activation of distinct cell populations, PBMCs were purified from HIV-1 infected subjects on cART, as described in Example 121 (anonymized participant IDs 184, 185, 188, 189, 190, and 191). […] After incubation, PBMCs were harvested and stained with antibodies conjugated to specific fluorophores (BD Biosciences) to delineate immune cell subsets: CD4 T cells (CD3+CD4+CD8−), CD8 T cells (CD3+CD8+CD4−), NK cells (CD3−CD56+CD16+), monocytes (CD3−CD14+), B cells (CD3−CD19+), and peripheral dendritic cells (DCs), defined as positive for HLA-DR and negative for a panel of markers: CD3, CD14, CD16, CD19, CD20, CD56 (Lin-1 lineage panel, BD Biosciences).
(§2) Additional markers of activation, maturation, and effector function were included for cell subsets, as follows: CD4 and CD8 T cells (CD25, CD38, CD69, IFN-γ, granzyme B, perforin, TNF-α), NK cells (CD25, CD69, IFN-γ), monocytes (CD11c, CD16, CD80, CD86, CD163, TNF-α), B cells (CD40, CD69, CD80, CD86), and DC (CD11c, CD69, CD80, CD86, CD123, and CD163). Cells were stained for surface markers (CD3, CD4, CD8, CD11c, CD14, CD16, CD25, CD69, CD80, CD86, CD163), washed, treated with fixation and permeabilization buffer (eBioscience), and stained for intracellular markers (IFN-γ, granzyme B, perforin, TNF-α). Cells were evaluated by flow cytometry on a LSR Fortessa (BD Biosciences), and data was analyzed with FlowJo software (TreeStar).
(§3) Data are expressed as geometric mean percentage (%) and as geometric mean fold-activation (Fold) for each marker and for each PBMC subset obtained from 4 or 6 subjects, as indicated. Fold activation is calculated as a ratio of the % positive for each marker for each PBMC subset at the indicated concentration of the compound of Example 15 relative to % positive for DMSO treated samples. Fold activations that are 1.5 are in bold.

[1] = test system: PBMC cultures from HIV-1 infected subjects on cART; assay: Induced HIV-1 expression in PBMC cultures, HIV-1 RNA in supernatant after 4 days (COBAS TaqMan HIV-1 Test); settings: for Geometric Mean with ≥2-Fold-Activation / Range with ≥2-Fold-Activation: N = 12; for N with ≥2-Fold-Activation: subjects; for Fold HIV-1 Activation: vs DMSO
Experimental: In some experiments, IL-15, the TLR8 modulating compound of Example 15 or the combination of IL-15 and Example 15 were used at the indicated concentrations (Table 4). The cultures were maintained in the presence of antivirals (elvitegravir and efavirenz at 100 nM each) to prevent viral spread and amplification in order to measure the quantity of virus produced (latency reversal) by the TLR8 modulating compounds. At the end of the incubation period, cell-free culture supernatants were harvested and HIV-1 RNA levels were quantified by the COBAS® AmpliPrep/COBAS®TaqMan HIV-1 Test, v2.0 (Roche).
In each table, fold-activation is calculated as a ratio of HIV-1 RNA copies per ml of cell culture supernatants from TLR8 agonist treated samples and DMSO treated controls. Geometric mean fold-activation from three independent incubation samples for each condition of each subject's PBMCs. Values in bold indicate ≥2-fold HIV activation.
To assess if the latency reversal induced by TLR8 agonism could further potentiate latency reversal by a separate mechanisms, we treated cells as described above with IL-15, Example 15, or a combination of IL-15 and Example 15 (Table 4).

NK Cells = assay: Immune cell activation in PBMC cultures, flow cytometry: NK cells; settings: for NK Cells CD25 Fold / NK Cells CD69 Fold: 2 days, N = 6
Experimental: as §1, §2, §3

CD8+ T Cells = assay: Immune cell activation in PBMC cultures, flow cytometry: CD8+ T cells; settings: 2 days; for CD8+ T Cells CD25 Fold / CD8+ T Cells CD28 Fold / CD8+ T Cells CD38 Fold / CD8+ T Cells CD69 Fold / CD8+ T Cells CD25 % / CD8+ T Cells CD28 % / CD8+ T Cells CD69 %: N = 6
Experimental: as §1, §2, §3

[2] = test system: HIV-specific polyfunctional CD8 T cells; assay: Induced HIV-specific polyfunctional CD8+ T cells in PBMC cultures from HIV-1 infected subjects on cART

CCCC[C@H](CO)Nc1nc(N)nc2cccnc12 [Example 15]
B Cells CD69 Fold (B Cells; 10 nM vs DMSO): 1.2 fold
B Cells CD80 Fold (B Cells; 10 nM vs DMSO): 1.6 fold
B Cells CD69 % (B Cells; 10 nM): 10.0%
B Cells CD80 % (B Cells; 10 nM): 2.6%
B Cells CD69 Fold (B Cells; 100 nM vs DMSO): 0.5 fold
B Cells CD80 Fold (B Cells; 100 nM vs DMSO): 1.1 fold
B Cells CD69 % (B Cells; 100 nM): 3.9%
B Cells CD80 % (B Cells; 100 nM): 1.7%
B Cells CD69 Fold (B Cells; 1000 nM vs DMSO): 1.1 fold
B Cells CD80 Fold (B Cells; 1000 nM vs DMSO): 1.4 fold
B Cells CD69 % (B Cells; 1000 nM): 9.1%
B Cells CD80 % (B Cells; 1000 nM): 2.2%
B Cells CD69 Fold (B Cells; 3000 nM vs DMSO): 1.7 fold
B Cells CD80 Fold (B Cells; 3000 nM vs DMSO): 1.9 fold
B Cells CD80 % (B Cells; 3000 nM): 3.0%
Concentration of maximal activation of B cells (B Cells; increased expression of CD69 and CD80): 3000 nM
Subjects with ≥2-Fold-Activation (%) ([1]; 10 nM): (42) %
Geometric Mean with ≥2-Fold-Activation ([1]; 10 nM): 4.6 fold
Range with ≥2-Fold-Activation ([1]; 10 nM): 2.2-20.1 fold
N with ≥2-Fold-Activation ([1]; 10 nM): 5 of 12
Fold HIV-1 Activation ([1]; 10 nM, one value per subject (IDs 172-183)): 2.6 fold and 2.2 fold and 4.7 fold and 1.2 fold and 1.9 fold and 1.3 fold and 0.3 fold and 0.5 fold and 1.0 fold and 4.1 fold and 0.8 fold
Subjects with ≥2-Fold-Activation (%) ([1]; 100 nM): (33) %
Geometric Mean with ≥2-Fold-Activation ([1]; 100 nM): 4.8 fold
Range with ≥2-Fold-Activation ([1]; 100 nM): 2.2-10.1 fold
N with ≥2-Fold-Activation ([1]; 100 nM): 4 of 12
Fold HIV-1 Activation ([1]; 100 nM, one value per subject (IDs 172-183)): 3.8 fold and 6.6 fold and 2.2 fold and 1.5 fold and 1.0 fold and 0.5 fold and 0.2 fold and 0.1 fold and 0.7 fold and 1.8 fold and 1.3 fold
Subjects with ≥2-Fold-Activation (%) ([1]; 1,000 nM): (58) %
Geometric Mean with ≥2-Fold-Activation ([1]; 1,000 nM): 3.4 fold
Range with ≥2-Fold-Activation ([1]; 1,000 nM): 2.4-5.7 fold
N with ≥2-Fold-Activation ([1]; 1,000 nM): 7 of 12
Fold HIV-1 Activation ([1]; 1,000 nM, one value per subject (IDs 172-183)): 2.7 fold and 2.4 fold and 3.3 fold and 1.2 fold and 4.7 fold and 0.3 fold (2×) and 3.4 fold and 3.0 fold and 1.3 fold and 1.6 fold and 5.7 fold
Geometric Mean with ≥2-Fold-Activation ([1]; 10, 100, or 1000 nM): 4.4 fold
Range with ≥2-Fold-Activation ([1]; 10, 100, or 1000 nM): 2.2-20.1 fold
N with ≥2-Fold-Activation ([1]; 10, 100, or 1000 nM): 9 out of 12 and 9 of 12
Subjects with ≥2-Fold-Activation (%) ([1]; Example 15 1000 nM): 50%
Fold HIV-1 Activation, Geometric Mean ([1]; Example 15 1000 nM, N = 6): 2.1 fold
N with ≥2-Fold-Activation ([1]; Example 15 1000 nM): 3 of 6
Fold HIV-1 Activation ([1]; Example 15 1000 nM, one value per subject (IDs 205-210)): 0.6 fold and 4.7 fold and 0.8 fold and 9.7 fold and 2.0 fold and 1.9 fold
NK Cells CD25 Fold (NK Cells; 10 nM vs DMSO): 0.4 fold
NK Cells CD69 Fold (NK Cells; 10 nM vs DMSO): 0.4 fold
NK Cells CD25 Fold (NK Cells; 100 nM vs DMSO): 1.6 fold
NK Cells CD69 Fold (NK Cells; 100 nM vs DMSO): 0.6 fold
NK Cells CD69 Fold (NK Cells; 1000 nM vs DMSO): 12.4 fold
NK Cells CD25 Fold (NK Cells; 3000 nM vs DMSO): 9.6 fold
NK Cells CD69 Fold (NK Cells; 3000 nM vs DMSO): 11.8 fold
Concentration of maximal activation of NK cells (NK Cells; increased expression of CD25 and CD69): 1000 nM
CD8+ T Cells CD25 Fold (CD8+ T Cells; 10 nM vs DMSO): 0.6 fold
CD8+ T Cells CD28 Fold (CD8+ T Cells; 10 nM vs DMSO): 0.9 fold
CD8+ T Cells CD38 Fold (CD8+ T Cells; 10 nM vs DMSO): 0.9 fold
CD8+ T Cells CD69 Fold (CD8+ T Cells; 10 nM vs DMSO): 0.8 fold
CD8+ T Cells CD25 % (CD8+ T Cells; 10 nM): 0.2%
CD8+ T Cells CD28 % (CD8+ T Cells; 10 nM): 0.1%
CD8+ T Cells CD69 % (CD8+ T Cells; 10 nM): 3.7%
CD8+ T Cells CD25 Fold (CD8+ T Cells; 100 nM vs DMSO): 1.0 fold
CD8+ T Cells CD28 Fold (CD8+ T Cells; 100 nM vs DMSO): 1.1 fold
CD8+ T Cells CD38 Fold (CD8+ T Cells; 100 nM vs DMSO): 1.0 fold
CD8+ T Cells CD69 Fold (CD8+ T Cells; 100 nM vs DMSO): 0.7 fold
CD8+ T Cells CD25 % (CD8+ T Cells; 100 nM): 0.3%
CD8+ T Cells CD28 % (CD8+ T Cells; 100 nM): 0.1%
CD8+ T Cells CD69 % (CD8+ T Cells; 100 nM): 3.4%
CD8+ T Cells CD25 Fold (CD8+ T Cells; 1000 nM vs DMSO): 2.2 fold
CD8+ T Cells CD28 Fold (CD8+ T Cells; 1000 nM vs DMSO): 4.4 fold
CD8+ T Cells CD38 Fold (CD8+ T Cells; 1000 nM vs DMSO): 2.0 fold
CD8+ T Cells CD69 Fold (CD8+ T Cells; 1000 nM vs DMSO): 2.2 fold
CD8+ T Cells CD25 % (CD8+ T Cells; 1000 nM): 0.7%
CD8+ T Cells CD28 % (CD8+ T Cells; 1000 nM): 0.4%
CD8+ T Cells CD25 Fold (CD8+ T Cells; 3000 nM vs DMSO): 3.0 fold
CD8+ T Cells CD28 Fold (CD8+ T Cells; 3000 nM vs DMSO): 4.7 fold
CD8+ T Cells CD38 Fold (CD8+ T Cells; 3000 nM vs DMSO): 2.0 fold
CD8+ T Cells CD69 Fold (CD8+ T Cells; 3000 nM vs DMSO): 2.5 fold
CD8+ T Cells CD25 % (CD8+ T Cells; 3000 nM): 0.9%
CD8+ T Cells CD28 % (CD8+ T Cells; 3000 nM): 0.5%
Perforin in CD8+ T cells (CD8+ T Cells; Example 15 treatment): did not increase
Patients in whom increases in HIV-specific polyfunctional CD8 T cells were seen ([2]; 100 nM): 3 of 5
Median HIV-specific polyfunctional CD8 T cells (% proliferating CD8+ cells double positive for IFN-γ and TNF-α) ([2]; 100 nM, HIV peptide pool, 5 subjects): 0.99%
Patients in whom increases in HIV-specific polyfunctional CD8 T cells were seen ([2]; 1000 nM): 4 of 5
Fold increase of median HIV-specific polyfunctional CD8 T cells ([2]; 1000 nM with HIV specific peptide pool vs vehicle, p<0.05): 2.7 fold
